In patent publication US6737383B1, “Herbicidal oxadiazolidines” (priority 1999, dated 2004):

Columns and labels:
[1] = system: cotton; assay: Test C postemergence cotton; type: in vivo, Gossypium hirsutum; settings: 0 to 100 scale, 0 no effect, 100 complete control
Summary of the method: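 Compounds in a non-phytotoxic solvent with surfactant were sprayed postemergence on greenhouse-grown plants in 60:40 sandy loam/potting mix. After about 14 to 21 days, visual ratings against untreated controls on a 0 (no effect) to 100 (complete control) scale.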

[2] = system: Alexandergrass; assay: Test D Alexandergrass; type: in vivo, Brachiaria plantaginea; settings: Rate 64 g/ha, Preemergence; 0 to 100 scale, 0 no injury, 100 complete control
Summary of the method: (§1)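 Visual injury ratings, 0 = no injury to 100 = complete control, taken 14 to 21 days after treatment. Test chemicals were in a surfactant-containing non-phytotoxic solvent; preemergence treatments went onto the sandy loam surface of seeded greenhouse pots within one day of sowing.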

[3] = system: bermuda-grass; assay: Test D bermudagrass; type: in vivo, Cynodon dactylon; settings: Rate 64 g/ha, Preemergence; 0 to 100 scale, 0 no injury, 100 complete control
Summary of the method: as §1

[4] = system: common pursiane; assay: Test D common purslane; type: in vivo, Portulaca oleracea; settings: Rate 64 g/ha, Preemergence; 0 to 100 scale, 0 no injury, 100 complete control
Summary of the method: as §1

[5] = system: common ragweed; assay: Test D common ragweed; type: in vivo, Ambrosia elatior; settings: Rate 64 g/ha, Preemergence; 0 to 100 scale, 0 no injury, 100 complete control
Summary of the method: as §1

[6] = system: dallisgrass; assay: Test D dallisgrass; type: in vivo, Paspalum dilatatum; settings: Rate 64 g/ha, Preemergence; 0 to 100 scale, 0 no injury, 100 complete control
Summary of the method: as §1

[7] = system: goosegrass; assay: Test D goosegrass; type: in vivo, Eleusine indica; settings: Rate 64 g/ha, Preemergence; 0 to 100 scale, 0 no injury, 100 complete control
Summary of the method: as §1

[8] = system: guineagrass; assay: Test D guineagrass; type: in vivo, Panicum maximum; settings: Rate 64 g/ha, Preemergence; 0 to 100 scale, 0 no injury, 100 complete control
Summary of the method: as §1

[9] = system: itchgrass; assay: Test D itchgrass; type: in vivo, Rottboellia exaltata; settings: Rate 64 g/ha, Preemergence; 0 to 100 scale, 0 no injury, 100 complete control
Summary of the method: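 Scoring used a 0–100 visual injury scale, with 0 meaning no effect and 100 complete control, assessed 14–21 days after application alongside untreated pots. Preemergence treatments went onto sandy loam surfaces of separately potted seeds within a day of sowing.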

[10] = system: Johnson grass; assay: Test D Johnson grass; type: in vivo, Sorghum halepense; settings: Rate 64 g/ha, Preemergence; 0 to 100 scale, 0 no injury, 100 complete control
Summary of the method: as §1

[11] = system: large crabgrass; assay: Test D large crabgrass; type: in vivo, Digitaria sanguinalis; settings: Rate 64 g/ha, Preemergence; 0 to 100 scale, 0 no injury, 100 complete control
Summary of the method: as §1

[12] = system: pitted morningglory; assay: Test D pitted morningglory; type: in vivo, Ipomoea lacunosa; settings: Rate 64 g/ha, Preemergence; 0 to 100 scale, 0 no injury, 100 complete control
Summary of the method: as §1

[13] = system: sandbur; assay: Test D sandbur; type: in vivo, Cenchrus echinatus; settings: Rate 64 g/ha, Preemergence; 0 to 100 scale, 0 no injury, 100 complete control
Summary of the method: as §1

[14] = system: sourgrass; assay: Test D sourgrass; type: in vivo, Trichachne insularis; settings: Rate 64 g/ha, Preemergence; 0 to 100 scale, 0 no injury, 100 complete control
Summary of the method: as §1

[15] = system: Spanishneedles; assay: Test D Spanishneedles; type: in vivo, Bidens bipinnata; settings: Rate 64 g/ha, Preemergence; 0 to 100 scale, 0 no injury, 100 complete control
Summary of the method: as §1

[16] = system: surinam grass; assay: Test D surinam grass; type: in vivo, Brachiaria decumbens; settings: Rate 64 g/ha, Preemergence; 0 to 100 scale, 0 no injury, 100 complete control
Summary of the method: as §1

[17] = system: tall mallow; assay: Test D tall mallow; type: in vivo, Malva sylvestris; settings: Rate 64 g/ha, Preemergence; 0 to 100 scale, 0 no injury, 100 complete control
Summary of the method: as §1

[18] = system: Green foxtail; assay: Test D green foxtail; type: in vivo; settings: Rate 64 g/ha, Preemergence; 0 to 100 scale, 0 no injury, 100 complete control
Summary of the method: as §1

Cc1ccc(N(C(=O)n2oc(=O)n(C(C)C)c2=O)C(C)C)cc1 [Compound 132]
Plant response rating Cotton ([1]; Rate 140 g/ha): 5
Plant response rating Cotton ([1]; Rate 280 g/ha): 10
Plant response rating Cotton ([1]; Rate 560 g/ha): 20
Plant response rating Cotton ([1]; Rate 1120 g/ha): 40
Plant response rating, Alexandergrass [2]: 98
Plant response rating, Bermudagrass [3]: 100
Plant response rating, C. purslane [4]: 10
Plant response rating, C. ragweed [5]: 0
Plant response rating, Dallisgrass [6]: 98
Plant response rating, Goosegrass [7]: 98
Plant response rating, Guineagrass [8]: 85
Plant response rating, Itchgrass [9]: 10
Plant response rating Johnsongrass [10]: 35
Plant response rating Large crabgrass [11]: 100
Plant response rating, P. morninglory [12]: 0
Sandbur plant response rating [13]: 0
Plant response rating, Sourgrass [14]: 100
Spanishneedles plant response rating [15]: 0
Surinam grass plant response rating [16]: 30
Tall Mallow plant response rating [17]: 40
Green foxtail plant response rating [18]: 100
Plant response rating, Green foxtail [18]: 100
